The values below come from patent US9765092B2, “Tricyclic piperidine compounds” (ACTELION PHARMACEUTICALS LTD, priority 2013, dated 2017).

The target in the experiment is human TPH1 (Homo sapiens (Human), UniProt P17752). The experiment is described as follows: Biochemical in vitro assay using fluorescence readout (TPH1 inhibition). The settings on record: human TPH1, fluorescence readout.
Chain of human TPH1 (P17752 whole entry): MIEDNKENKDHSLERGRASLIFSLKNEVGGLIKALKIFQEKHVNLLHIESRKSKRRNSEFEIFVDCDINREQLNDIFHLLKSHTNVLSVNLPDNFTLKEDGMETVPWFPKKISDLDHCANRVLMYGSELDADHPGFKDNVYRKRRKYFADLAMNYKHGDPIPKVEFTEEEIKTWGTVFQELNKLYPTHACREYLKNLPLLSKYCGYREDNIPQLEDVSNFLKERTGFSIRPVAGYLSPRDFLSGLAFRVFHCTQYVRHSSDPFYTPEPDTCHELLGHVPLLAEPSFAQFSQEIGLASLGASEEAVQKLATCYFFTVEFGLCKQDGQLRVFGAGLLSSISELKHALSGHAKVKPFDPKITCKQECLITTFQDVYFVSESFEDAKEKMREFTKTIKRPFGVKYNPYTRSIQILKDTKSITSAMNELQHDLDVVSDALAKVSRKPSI

A word on the IC50: it is the concentration needed to halve the response being measured. Read a high IC50 as weaker potency in that assay. The compound `O=C(COc1ccc(Cl)cc1Cl)N1CCc2nc3sccn3c2C1c1cc2cccnc2s1` (stereo not shown) [Example 6.14.1, 2-(2,4-dichlorophenoxy)-1-(5-(thieno[2,3-b]pyridin-2-yl)-7,8-dihydrothiazolo[2′,3′:2,3]imidazo[4,5-c]pyridin-6(5H)-yl)ethanone] yielded an IC50 of 0.025 µM.
In the case of `Cc1nn2c3c(nc2s1)CCN(C(=O)COc1ccc(F)cc1C)C3c1ccc(C2CC2)cc1F` (stereo not shown) [Example 1.6.10, 1-(5-(4-cyclopropyl-2-fluorophenyl)-2-methyl-7,8-dihydro-[1,3,4]thiadiazolo[2′,3′:2,3]imidazo[4,5-c]pyridin-6(5H)-yl)-2-(4-fluoro-2-methylphenoxy)ethanone] it was 0.006 µM.
In the case of `Cc1nn2c3c(nc2s1)CCN(C(=O)COc1ccc(C(F)(F)F)nc1Cl)C3c1scnc1C` (stereo not shown) [Example 1.32.4, 2-((2-chloro-6-(trifluoromethyl)pyridin-3-yl)oxy)-1-(2-methyl-5-(4-methylthiazol-5-yl)-7,8-dihydro-[1,3,4]thiadiazolo [2′,3′:2,3]imidazo[4,5-c]pyridin-6(5H)-yl)ethanone], inhibition was half-maximal at 0.021 µM (IC50).
For `CCn1nc(C(=O)N(C)C)cc1OCC(=O)N1CCc2nc3sc(C)nn3c2C1c1sccc1F` (stereo not shown) [Example 1.23.13, 1-ethyl-5-(2-(5-(3-fluorothiophen-2-yl)-2-methyl-7,8-dihydro-[1,3,4]thiadiazolo[2′,3′:2,3]imidazo[4,5-c]pyridin-6(5H)-yl)-2-oxoethoxy)-N,N-dimethyl-1H-pyrazole-3-carboxamide] the value was 0.103 µM; for `Cc1nn2c3c(nc2s1)CCN(C(=O)COc1ccc(C(F)(F)F)nc1Cl)C3c1sccc1F` (stereo not shown) [Example 1.23.3, 2-((2-chloro-6-(trifluoromethyl)pyridin-3-yl)oxy)-1-(5-(3-fluorothiophen-2-yl)-2-methyl-7,8-dihydro-[1,3,4]thiadiazolo [2′,3′:2,3]imidazo[4,5-c]pyridin-6(5H)-yl)ethanone], 0.02 µM.
For `COc1ccc(C2c3c(nc4sccn34)CCN2C(=O)COc2ccc(Cl)cc2Cl)cc1OC` (stereo not shown) [Example 6.1.3, 2-(2,4-dichlorophenoxy)-1-(5-(3,4-dimethoxyphenyl)-7,8-dihydrothiazolo[2′,3′:2,3]imidazo[4,5-c]pyridin-6(5H)-yl)ethanone], the IC50 is 0.007 µM. Compared with the last compound, the IC50 is about 2.9-fold lower.
In the case of `Cc1nn2c3c(nc2s1)CCN(C(=O)COc1c(Cl)nc(N2CCOCC2)c(F)c1F)C3c1ncc(C2CC2)cc1F` (stereo not shown) [Example 1.14.11, 2-((2-chloro-4,5-difluoro-6-morpholinopyridin-3-yl)oxy)-1-(5-(5-cyclopropyl-3-fluoropyridin-2-yl)-2-methyl-7,8-dihydro-[1,3,4]thiadiazolo[2′,3′:2,3]imidazo[4,5-c]pyridin-6(5H)-yl)ethanone] it was 0.122 µM; in that of `CNC(=O)c1cc(F)c(C2c3c(nc4sc(C)nn34)CCN2C(=O)COc2ccc(C(=O)N(C)C)nc2Cl)s1` (stereo not shown) [Example 1.25.4, 6-chloro-5-(2-(5-(3-fluoro-5-(methylcarbamoyl)thiophen-2-yl)-2-methyl-7,8-dihydro-[1,3,4]thiadiazolo[2′,3′:2,3]imidazo[4,5-c]pyridin-6(5H)-yl)-2-oxoethoxy)-N,N-dimethylpicolinamide], 0.006 µM; in that of `CCc1nc(Cl)ncc1OCC(=O)N1CCc2nc3sc(C)nn3c2[C@@H]1c1ncc(C)cc1F` [Example 1.31.18, (R)-2-((2-chloro-4-ethylpyrimidin-5-yl)oxy)-1-(5-(3-fluoro-5-methylpyridin-2-yl)-2-methyl-7,8-dihydro-[1,3,4]thiadiazolo[2′,3′:2,3]imidazo[4,5-c]pyridin-6(5H)-yl)ethanone], 0.049 µM.
In the case of `CCc1ncccc1OCC(=O)N1CCc2nc3sc(C)nn3c2C1c1ccc(Cl)cc1F` (stereo not shown) [Example 1.4.5, 1-(5-(4-chloro-2-fluorophenyl)-2-methyl-7,8-dihydro-[1,3,4]thiadiazolo[2′,3′:2,3]imidazo[4,5-c]pyridin-6(5H)-yl)-2-((2-ethylpyridin-3-yl)oxy)ethanone] it was 0.013 µM.
